# Experiments:
# Format in all cases: binding, BALB/c mice
# [1] = test system: anti-carbaryl monoclonal antibody secreted by the hybridoma cell line Jnw1D2; test: indirect competitive ELISA characterisation of the anti-carbaryl monoclonal antibody (IC50, cross reaction); details: with anti-carbaryl monoclonal antibody
# Source text: 2-3 weeks after cell fusion, when the cell colonies grew up to be visually visible, the clones were picked out from the culture medium with a micropipette, transferred to a 96-well cell culture plate and cultured in HAT liquid. When the cells grew to cover ⅔ of the bottom of the well, the culture supernatant was aspirated for testing. A two-step screening method was adopted. In the first step, indirect ELISA method was used to screen out the positive wells against carbaryl, but not the carrier protein BSA. In the second step, indirect competitive ELISA method was used for testing the positive wells screened out in the first step with carbaryl as a competitor. Wells with high absorbance and sensitivity were chosen (where the high absorbance means a high final value determined in the well where the competitor is 0, i.e., the positive control well, and the high sensitivity means a low concentration, i.e. the IC50, of the competitor achieving 50% inhibition). The cells were subcloned by limiting dilution analysis, and then detected by the two-step method as described above. After 4-5 rounds of repeated subcloning, a hybridoma cell line Jnw1D2 was obtained, which was deposited in China Center for Type Culture Collection (CCTCC) (Wuhan University, Wuhan, China) under the CCTCC Accession No: C201654.
# The subtype of the anti-carbaryl monoclonal antibody secreted by the hybridoma cell line Jnw1D2 was identified as IgG2b by using a commercial subtype identification kit. The titer of the antibody was 1.6×10^4 measured by enzyme-linked immunosorbent assay (ELISA).
# [2] = test system: anti-carbaryl monoclonal antibody; test: competitive FPIA carbaryl standard curve in borate buffer solution; details: 10% methanol, 10 min
# Procedure: Step 2: First, the working concentration of each fluorescent marker was set to a corresponding fluorescent marker concentration (5 nM) when the fluorescence intensity was 10 times of the background fluorescence intensity of the BB solution (borate buffer solution). With a corresponding antibody dilution factor when 70% of the anti-carbaryl monoclonal antibody binds to the fluorescent marker (1 μg/mL), the carbaryl detection standard curve of different markers was established and the IC50 was calculated. The optimum fluorescent marker was decided based on the IC50 value of each standard curve. […]
# 9 concentration gradients of carbaryl standards of 100 μg/mL, 10 μg/mL, 1 μg/mL, 0.5 μg/mL, 0.1 μg/mL, 0.05 μg/mL, 0.01 μg/mL, 0.005 μg/mL and 0.001 μg/mL were formulated with 10% methanol in a borate buffer solution, and each 50 μL of the carbaryl standards, 500 μL fluorescent marker of working concentration (5 nM), and 500 μL anti-carbaryl monoclonal antibody of the working concentration (1 μg/mL) were added to a reaction tube, and incubated at room temperature in the dark for 10 min. Then the fluorescence polarization value was measured at an excitation wavelength of 485 nm and an emission wavelength of 530 nm, with a cutoff of 515 nm. […]
# [3] = test system: anti-carbaryl monoclonal antibody; test: competitive FPIA carbaryl standard curve in strawberry sample matrix; details: 25° C., 5 min
# Procedure: Step 1: 20.0 g of the blank strawberry sample (which was determined to be carbaryl free by LC) was weighed and added to 20.0 mL acetonitrile, homogenized for 2 min at a high speed, filtered into a 50 mL centrifuge tube containing 4 g of sodium chloride, shaken vigorously for 3 min, and centrifuged at 5000 g for 2 min. 10 mL of the supernatant extract was aspirated to a beaker, heated in a water bath at 80° C., and evaporated to almost dryness while nitrogen was introduced into the beaker. 10 mL of methanol was added to dissolve the sample residue, to obtain a sample matrix solution. 9 concentration gradients of carbaryl standards of 100 μg/mL, 10 μg/mL, 1μg/mL, 0.5 μg/mL, 0.1 μg/mL, 0.05 μg/mL, 0.01 μg/mL, 0.005 μg/mL and 0.001 μg/mL were formulated with the sample matrix solution. Each 50 μL of the carbaryl standard solution in the sample matrix solution, 500 μL fluorescent marker solution and 500 μL anti-carbaryl monoclonal antibody solution were added and incubated at 25° C. for 5 min. Then FPIA detection was conducted. According to the correlation between the fluorescence polarization signal and the concentration of the carbaryl standard, a standard curve for carbaryl detection in the strawberry sample was obtained, as shown in FIG. 2. The detection sensitivity of carbaryl in the strawberry matrix is 108.6 μg/kg and the detection range is 32.4-363.6 μg/kg. […]
SMILES,cross reaction [1],sensitivity of the standard curve [2] [ng/mL],detection sensitivity [3] [µg/kg]
CNC(=O)Oc1cccc2c1OC(C)(C)C2 [carbofuran],no cross reaction,–,–
CNC(=O)O/N=C/C(C)(C)SC [aldicarb],no cross reaction,–,–
CNC(=O)Oc1cccc2ccccc12 [carbaryl],–,82.3,108.6
CNC(=O)ON=C(C)SC [methomyl],no cross reaction,–,–
